{"source": "patent US20260217701A1", "about": "“SELECTIVE BET INHIBITORS AND USES THEREOF” (Tay Therapeutics Limited, priority 2022, published 2026)", "assay": "CIA study: animal body weight", "conditions": "for Average animal body weight / Average animal body weight percent change: CIA; for Animal body weight percent change (%): individual animals", "note": "Several values for one entry are separate records, joined by “and”; a condition that tells them apart may be missing. Identical values can stand only once."}
{"smiles": "Cn1cc(-c2ccccc2)c(-c2cn(C)c(=O)c3[nH]c(-c4cnn(C(F)(F)F)c4)cc23)cc1=O", "note": "[Compound A, 6-methyl-4-(1-methyl-2-oxo-5-phenyl-1,2-dihydropyridin-4-yl)-2-(1-(trifluoromethyl)-1H-pyrazol-4-yl)-1,6-dihydro-7H-pyrrolo[2,3-c]pyridin-7-one]", "values": [{"measurement": "Animal body weight", "setting": "CIA + Compound A 1 mg/kg, Day 8, 1 mg/kg", "result": "172 g and 157 g and 170 g and 161 g and 171 g and 165 g"}, {"measurement": "Animal body weight", "setting": "CIA + Compound A 1 mg/kg, Day 9, 1 mg/kg", "result": "180 g and 156 g and 175 g and 162 g and 173 g and 170 g and 169 g"}, {"measurement": "Animal body weight", "setting": "CIA + Compound A 1 mg/kg, Day 10, 1 mg/kg", "result": "178 g and 155 g and 166 g and 170 g and 176 g"}, {"measurement": "Animal body weight", "setting": "CIA + Compound A 1 mg/kg, Day 11, 1 mg/kg", "result": "180 g and 157 g and 178 g and 162 g and 170 g and 175 g and 167 g"}, {"measurement": "Animal body weight", "setting": "CIA + Compound A 1 mg/kg, Day 12, 1 mg/kg", "result": "182 g and 158 g and 176 g and 162 g and 174 g and 177 g and 165 g"}, {"measurement": "Animal body weight", "setting": "CIA + Compound A 1 mg/kg, Day 13, 1 mg/kg", "result": "180 g and 158 g and 179 g and 160 g and 174 g and 172 g and 165 g"}, {"measurement": "Animal body weight", "setting": "CIA + Compound A 1 mg/kg, Day 14, 1 mg/kg", "result": "178 g and 159 g and 179 g and 155 g and 175 g and 170 g and 168 g"}, {"measurement": "Animal body weight", "setting": "CIA + Compound A 3 mg/kg, Day 8, 3 mg/kg", "result": "160 g and 174 g and 173 g and 169 g and 163 g and 165 g and 167 g and 157 g"}, {"measurement": "Animal body weight", "setting": "CIA + Compound A 3 mg/kg, Day 9, 3 mg/kg", "result": "162 g and 171 g and 178 g and 169 g and 160 g and 163 g and 170 g"}, {"measurement": "Animal body weight", "setting": "CIA + Compound A 3 mg/kg, Day 10, 3 mg/kg", "result": "162 g and 172 g and 177 g and 170 g and 168 g and 167 g"}, {"measurement": "Animal body weight", "setting": "CIA + Compound A 3 mg/kg, Day 11, 3 mg/kg", "result": "160 g and 172 g and 178 g and 169 g and 165 g"}, {"measurement": "Animal body weight", "setting": "CIA + Compound A 3 mg/kg, Day 12, 3 mg/kg", "result": "158 g and 176 g and 170 g and 167 g and 169 g and 172 g and 165 g"}, {"measurement": "Animal body weight", "setting": "CIA + Compound A 3 mg/kg, Day 13, 3 mg/kg", "result": "162 g and 175 g and 166 g and 173 g and 157 g and 168 g and 171 g"}, {"measurement": "Animal body weight", "setting": "CIA + Compound A 3 mg/kg, Day 14, 3 mg/kg", "result": "163 g and 177 g and 170 g and 175 g and 156 g and 167 g and 158 g"}, {"measurement": "Animal body weight", "setting": "CIA + Compound A 10 mg/kg, Day 8, 10 mg/kg", "result": 162, "unit": "g"}, {"measurement": "Animal body weight", "setting": "CIA + Compound A 10 mg/kg, Day 9, 10 mg/kg", "result": 164, "unit": "g"}, {"measurement": "Animal body weight", "setting": "CIA + Compound A 10 mg/kg, Day 10, 10 mg/kg", "result": 165, "unit": "g"}, {"measurement": "Animal body weight", "setting": "CIA + Compound A 10 mg/kg, Day 11, 10 mg/kg", "result": 164, "unit": "g"}, {"measurement": "Animal body weight", "setting": "CIA + Compound A 10 mg/kg, Day 12, 10 mg/kg", "result": 163, "unit": "g"}, {"measurement": "Animal body weight", "setting": "CIA + Compound A 10 mg/kg, Day 13, 10 mg/kg", "result": 163, "unit": "g"}, {"measurement": "Animal body weight", "setting": "CIA + Compound A 10 mg/kg, Day 14, 10 mg/kg", "result": 164, "unit": "g"}, {"measurement": "Average animal body weight", "setting": "Day 0, 1 mg/kg", "result": 163}, {"measurement": "Average animal body weight percent change", "setting": "Day 0, 1 mg/kg", "result": 0.00, "unit": "%"}, {"measurement": "Average animal body weight", "setting": "Day 0, 3 mg/kg", "result": 166}, {"measurement": "Average animal body weight percent change", "setting": "Day 0, 3 mg/kg", "result": 0.00, "unit": "%"}, {"measurement": "Average animal body weight", "setting": "Day 0, 10 mg/kg", "result": 162}, {"measurement": "Average animal body weight percent change", "setting": "Day 0, 10 mg/kg", "result": 0.00, "unit": "%"}, {"measurement": "Average animal body weight", "setting": "Day 1, 1 mg/kg", "result": 166}, {"measurement": "Average animal body weight percent change", "setting": "Day 1, 1 mg/kg", "result": 1.55, "unit": "%"}, {"measurement": "Average animal body weight", "setting": "Day 1, 3 mg/kg", "result": 165}, {"measurement": "Average animal body weight percent change", "setting": "Day 1, 3 mg/kg", "result": "−0.19", "unit": "%"}, {"measurement": "Average animal body weight", "setting": "Day 1, 10 mg/kg", "result": 164}, {"measurement": "Average animal body weight percent change", "setting": "Day 1, 10 mg/kg", "result": 1.12, "unit": "%"}, {"measurement": "Average animal body weight", "setting": "Day 2, 1 mg/kg", "result": 163}, {"measurement": "Average animal body weight percent change", "setting": "Day 2, 1 mg/kg", "result": "−0.07", "unit": "%"}, {"measurement": "Average animal body weight", "setting": "Day 2, 3 mg/kg", "result": 165}, {"measurement": "Average animal body weight percent change", "setting": "Day 2, 3 mg/kg", "result": "−0.57", "unit": "%"}, {"measurement": "Average animal body weight", "setting": "Day 2, 10 mg/kg", "result": 163}, {"measurement": "Average animal body weight percent change", "setting": "Day 2, 10 mg/kg", "result": 0.71, "unit": "%"}, {"measurement": "Average animal body weight", "setting": "Day 3, 1 mg/kg", "result": 165}, {"measurement": "Average animal body weight percent change", "setting": "Day 3, 1 mg/kg", "result": 0.96, "unit": "%"}, {"measurement": "Average animal body weight", "setting": "Day 3, 3 mg/kg", "result": 163}, {"measurement": "Average animal body weight percent change", "setting": "Day 3, 3 mg/kg", "result": "−1.45", "unit": "%"}, {"measurement": "Average animal body weight", "setting": "Day 3, 10 mg/kg", "result": 163}, {"measurement": "Average animal body weight percent change", "setting": "Day 3, 10 mg/kg", "result": 0.63, "unit": "%"}, {"measurement": "Average animal body weight", "setting": "Day 4, 1 mg/kg", "result": 165}, {"measurement": "Average animal body weight percent change", "setting": "Day 4, 1 mg/kg", "result": 1.26, "unit": "%"}, {"measurement": "Average animal body weight", "setting": "Day 4, 3 mg/kg", "result": 165}, {"measurement": "Average animal body weight percent change", "setting": "Day 4, 3 mg/kg", "result": "−0.35", "unit": "%"}, {"measurement": "Average animal body weight", "setting": "Day 4, 10 mg/kg", "result": 163}, {"measurement": "Average animal body weight percent change", "setting": "Day 4, 10 mg/kg", "result": 0.72, "unit": "%"}, {"measurement": "Average animal body weight", "setting": "Day 5, 1 mg/kg", "result": 169}, {"measurement": "Average animal body weight percent change", "setting": "Day 5, 1 mg/kg", "result": 3.76, "unit": "%"}, {"measurement": "Average animal body weight", "setting": "Day 5, 3 mg/kg", "result": 167}, {"measurement": "Average animal body weight percent change", "setting": "Day 5, 3 mg/kg", "result": 0.70, "unit": "%"}, {"measurement": "Average animal body weight", "setting": "Day 5, 10 mg/kg", "result": 166}, {"measurement": "Average animal body weight percent change", "setting": "Day 5, 10 mg/kg", "result": 2.60, "unit": "%"}, {"measurement": "Average animal body weight", "setting": "Day 6, 1 mg/kg", "result": 170}, {"measurement": "Average animal body weight percent change", "setting": "Day 6, 1 mg/kg", "result": 4.33, "unit": "%"}, {"measurement": "Average animal body weight", "setting": "Day 6, 3 mg/kg", "result": 166}, {"measurement": "Average animal body weight percent change", "setting": "Day 6, 3 mg/kg", "result": 0.43, "unit": "%"}, {"measurement": "Average animal body weight", "setting": "Day 6, 10 mg/kg", "result": 166}, {"measurement": "Average animal body weight percent change", "setting": "Day 6, 10 mg/kg", "result": 2.04, "unit": "%"}, {"measurement": "Average animal body weight", "setting": "Day 7, 1 mg/kg", "result": 170}, {"measurement": "Average animal body weight percent change", "setting": "Day 7, 1 mg/kg", "result": 3.94, "unit": "%"}, {"measurement": "Average animal body weight", "setting": "Day 7, 3 mg/kg", "result": 164}, {"measurement": "Average animal body weight percent change", "setting": "Day 7, 3 mg/kg", "result": "−0.93", "unit": "%"}, {"measurement": "Average animal body weight", "setting": "Day 7, 10 mg/kg", "result": 164}, {"measurement": "Average animal body weight percent change", "setting": "Day 7, 10 mg/kg", "result": 0.89, "unit": "%"}, {"measurement": "Average animal body weight", "setting": "Day 8, 1 mg/kg", "result": 167}, {"measurement": "Average animal body weight percent change", "setting": "Day 8, 1 mg/kg", "result": 2.26, "unit": "%"}, {"measurement": "Average animal body weight", "setting": "Day 8, 3 mg/kg", "result": 166}, {"measurement": "Average animal body weight percent change", "setting": "Day 8, 3 mg/kg", "result": 0.36, "unit": "%"}, {"measurement": "Average animal body weight", "setting": "Day 8, 10 mg/kg", "result": 162}, {"measurement": "Average animal body weight percent change", "setting": "Day 8, 10 mg/kg", "result": "−0.31", "unit": "%"}, {"measurement": "Animal body weight percent change (%)", "setting": "Day 8, Group 5 (CIA + Compound A 1 mg/kg), 1 mg/kg", "result": "4.24% and −4.27% and 4.94% and 5.92% and 1.78% and 2.40% and 1.23%"}, {"measurement": "Animal body weight percent change (%)", "setting": "Day 8, Group 6 (CIA + Compound A 3 mg/kg), 3 mg/kg", "result": "−4.76% and 1.75% and −1.14% and 1.20% and −2.40% and 1.23% and 6.37% and 0.64%"}, {"measurement": "Average animal body weight", "setting": "Day 9, 1 mg/kg", "result": 169}, {"measurement": "Average animal body weight percent change", "setting": "Day 9, 1 mg/kg", "result": 3.79, "unit": "%"}, {"measurement": "Average animal body weight", "setting": "Day 9, 3 mg/kg", "result": 167}, {"measurement": "Average animal body weight percent change", "setting": "Day 9, 3 mg/kg", "result": 0.75, "unit": "%"}, {"measurement": "Average animal body weight", "setting": "Day 9, 10 mg/kg", "result": 163}, {"measurement": "Average animal body weight percent change", "setting": "Day 9, 10 mg/kg", "result": 0.36, "unit": "%"}]}
